Columns and labels:
E-cad [1] = experiment: E-cad expression after MS-275 in gefitinib-resistant NSCLC cell lines; assay type: cell-based, human; conditions: 24 hours after treatment with 4 or 10 μM
[2] = in vivo; cited from earlier work
E-cad [3] = conditions: lung cancer cell lines; cited from earlier work
NSCLC patients = conditions: cited from earlier work; for response rate: single agent, phase I studies, chemotherapy resistant NSCLC patients
H520 NSCLC cell line = experiment: Apoptosis and cell death (cell cycle analysis); assay type: cell-based, human; conditions: 10 μM
Procedure: (§1) The effect of gefitinib on inducing apoptosis and cell death in NSCLC cell lines sensitive and resistant to gefitinib was evaluated.

H460 NSCLC cell line = experiment: Apoptosis and cell death (cell cycle analysis); assay type: cell-based, human; conditions: 10 μM
Procedure: as §1

H157 NSCLC cell line = experiment: Apoptosis and cell death (cell cycle analysis); assay type: cell-based, human; conditions: 10 μM
Procedure: as §1

H358 NSCLC cell line = experiment: Apoptosis and cell death (cell cycle analysis); assay type: cell-based, human; conditions: 10 μM
Procedure: (§2) The effect of gefitinib on inducing apoptosis and cell death in NSCLC cell lines sensitive and resistant to gefitinib was evaluated. […].

Calu3 NSCLC cell line = experiment: Apoptosis and cell death (cell cycle analysis); assay type: cell-based, human; conditions: 10 μM
Procedure: as §2

H3255 NSCLC cell line = experiment: Apoptosis and cell death (cell cycle analysis); assay type: cell-based, human; conditions: 10 μM
Procedure: as §2

H322 NSCLC cell line = experiment: Apoptosis and cell death (cell cycle analysis); assay type: cell-based, human; conditions: 10 μM
Procedure: as §2

A549 NSCLC cell line = experiment: Apoptosis and cell death (cell cycle analysis); assay type: cell-based, human; conditions: 10 μM
Procedure: as §2

[4] = unselected gefitinib treated NSCLC patients

Nc1ccccc1NC(=O)c1ccc(CNC(=O)OCc2cccnc2)cc1 [MS-275]
upregulation of E-cad expression (E-cad [1]; H157): Eight to twelve | upregulation of E-cad expression (E-cad [1]; H460): Eight to twelve | upregulation of E-cad expression (E-cad [1]; H520): Eight to twelve | half-life [2]: 100 h | persistence of changes in histone acetylation following administration [2]: several weeks

CC(/C=C/C(=O)NO)=C\[C@@H](C)C(=O)c1ccc(N(C)C)cc1 [TSA, trichostatin A]
effect on E-cad (E-cad [3]): activation of E-cad

C#Cc1cccc(Nc2ncnc3cc(OCCOC)c(OCCOC)cc23)c1 [erlotinib]
survival (NSCLC patients; second or third line therapy, National Cancer Institute Canada trial): survival benefit | response rate (NSCLC patients): about 10%

COc1cc2ncnc(Nc3ccc(F)c(Cl)c3)c2cc1OCCCN1CCOCC1 [gefitinib]
apoptosis and cell death (H520 NSCLC cell line): no apoptotic or necrotic effect | apoptosis and cell death (H460 NSCLC cell line): no apoptotic or necrotic effect | apoptosis and cell death (H157 NSCLC cell line): no apoptotic or necrotic effect | increase in apoptosis and cell death (H358 NSCLC cell line): 2.3-3.4 fold | increase in apoptosis and cell death (Calu3 NSCLC cell line): 2.3-3.4 fold | increase in apoptosis and cell death (H3255 NSCLC cell line): 35 fold | increase in apoptosis and cell death (H322 NSCLC cell line): 2.3-3.4 fold | apoptosis and cell death (A549 NSCLC cell line): no apoptotic or necrotic effect | response rate (NSCLC patients): about 10% | objective response (NSCLC patients; [4]): up to 18% | symptomatic improvement (NSCLC patients; [4]): 40%
